Laboratory results as given in patent US9440969B2, “Compounds and methods for kinase modulation, and indications therefor” (PLEXXIKON INC., priority 2009, dated 2016).

Tests used:
c-Raf-1 = c-Raf-1 (Homo sapiens, UniProt P04049); assay: c-Raf-1 kinase activity assay (AlphaScreen, biotin-MEK1 substrate); details: 100 μM ATP, 100 nM biotin-MEK1, 45 minutes at room temperature; read-out: Biochemical activity (IC50 μM) c-Raf-1
Method in brief: (§1)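 AlphaScreen detection of phospho-MEK1 uses anti-phospho-MEK1/2 antibody and donor/acceptor beads, incubated 3 h. The kinase step runs 45 min at room temperature with 0.1 ng enzyme, 100 nM biotin-MEK1 and 100 μM ATP in 50 mM HEPES pH 7.0. IC50 is derived from eight compound concentrations.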

B-Raf = B-Raf (Homo sapiens, UniProt P15056); assay: B-Raf kinase activity assay (AlphaScreen, biotin-MEK1 substrate); details: 100 μM ATP, 100 nM biotin-MEK1, 45 minutes at room temperature; read-out: Biochemical activity (IC50 μM) B-Raf
Sequence of B-Raf (P15056 whole entry): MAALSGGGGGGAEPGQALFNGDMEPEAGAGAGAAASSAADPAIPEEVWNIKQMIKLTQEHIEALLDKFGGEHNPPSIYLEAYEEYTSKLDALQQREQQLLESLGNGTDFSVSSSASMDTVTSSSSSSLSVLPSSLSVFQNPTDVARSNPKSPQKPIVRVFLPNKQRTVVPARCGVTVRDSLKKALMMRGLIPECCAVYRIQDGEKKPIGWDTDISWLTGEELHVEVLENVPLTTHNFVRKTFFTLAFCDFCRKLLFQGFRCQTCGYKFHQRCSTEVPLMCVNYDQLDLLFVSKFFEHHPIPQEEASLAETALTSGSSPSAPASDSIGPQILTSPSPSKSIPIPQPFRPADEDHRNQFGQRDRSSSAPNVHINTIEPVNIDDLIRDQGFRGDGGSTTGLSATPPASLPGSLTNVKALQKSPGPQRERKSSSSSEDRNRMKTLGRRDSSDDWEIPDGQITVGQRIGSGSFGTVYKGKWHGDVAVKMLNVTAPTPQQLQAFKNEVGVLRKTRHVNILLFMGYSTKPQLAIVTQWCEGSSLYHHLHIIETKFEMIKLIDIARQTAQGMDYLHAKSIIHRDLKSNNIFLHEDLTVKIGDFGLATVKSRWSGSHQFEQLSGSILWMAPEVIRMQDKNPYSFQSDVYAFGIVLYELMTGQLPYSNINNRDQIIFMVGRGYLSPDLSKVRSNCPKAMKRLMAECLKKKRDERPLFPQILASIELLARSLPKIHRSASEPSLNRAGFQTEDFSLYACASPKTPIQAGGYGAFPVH
Method in brief: as §1

B-Raf V600E = B-Raf V600E (Homo sapiens, UniProt P15056, V600E); assay: B-Raf V600E kinase activity assay (AlphaScreen, biotin-MEK1 substrate); details: 100 μM ATP, 100 nM biotin-MEK1, 45 minutes at room temperature, read-out: Biochemical activity (IC50 μM) V600E
Sequence of B-Raf V600E (P15056 whole entry V600E): as the sequence (P15056 whole entry) above, with V600E counted along it
Method in brief: as §1

[1] = test system: COLO205 colon adenocarcinoma (B-Raf V600E mutation); assay: COLO205 cell growth inhibition (ATPlite luminescence); type: cell-based; details: Homo sapiens, COLO 205, 72 h, COLO205 cells, incubated 3 days with compound
Method: Compounds are assessed in a variety of cell based assays. For example human cell lines with B-Raf V600E mutation (A375 melanoma, SKMEL3 melanoma, and COLO205 colon adenocarcinoma), as well as tumorigenic cell lines with wild-type B-RAF (SW620 colon adenocarcinoma) or with Ras mutations (SKMEL2 melanoma and IPC298 melanoma). Similar assays may be used to assess additional tumorigenic cell lines with Ras mutations, including, but not limited to, M202, M207, M243, M244, M296, S117, HCT116, HCT15, DLD1, MiaPaCa, A549, NCI-H23, NCI-H460, HOP62, MDA-MB231, Hs-578T, HL60, MOLT-4, and CCRF-CEM.
On day 1, cells are counted, then centrifuged in a conical tube for 5 minutes at 1000 rpm. The supernatant is removed and cells are re-suspended as follows: • SW620 (ATCC catalog #CCL-27): resuspend in Leibovitz's L-15 medium, 2 mM L-glutamine, 10% fetal bovine serum to 6×10^4 cells/mL. • A375 (ATCC catalog #CRL-1619): resuspend in Dulbecco's modified Eagle's medium, 4 mM L-glutamine, 4.5 g/L D-glucose, 10% fetal bovine serum to 6×10^4 cells/mL. • COLO205 (ATCC catalog #CCL-222): resuspend in RPMI 1640, 2 mM L-glutamine, 1.5 g/L sodium bicarbonate, 4.5 g/L D-glucose, 10 mM HEPES, 1.0 mM sodium pyruvate, 10% fetal bovine serum to 6×10^4 cells/mL. • SKMEL2 (ATCC catalog #HTB-68): resuspend in Minimum Eagle essential medium, 2 mM L-glutamine, 1.5 g/L sodium bicarbonate, 0.1 mM non-essential amino acids, 1.0 mM sodium pyruvate, 10% fetal bovine serum to 6×10^4 cells/mL. • SKMEL3 (ATCC catalog #HTB-69): resuspend in McCoy's 5A medium, 1.5 mM L-glutamine, 15% fetal bovine serum to 6×10^4 cells/mL. • IPC298 (DSMZ catalog #ACC 251): resuspend in RPMI 1640, 2 mM L-glutamine, 10% fetal bovine serum to 6×10^4 cells/mL.
The cells are plated, 50 μL in each well of a 96-well dish (Corning 3610) and incubated at 37° C. in 5% CO2 overnight, cells plated to a final concentration of cells as follows:
On day 2, compound at a maximum concentration of 5 mM is serially diluted 1:3 (e.g. 10 μL with 30 μL dimethyl sulfoxide) for a total of 8 point titration with DMSO as a control. A 1 μL aliquot of each dilution point and control is added to 249 μL growth media and 50 μL is added to a well containing cells, providing 10 μM compound at the maximum concentration point. The cells are incubated for 3 days at 37° C. in 5% CO2.
On day 5, ATPlite 1 step Luminescence Assay System (Perkin Elmer #6016739) is brought to room temperature along with the cell cultures. ATPlite is added 25 μL to each well, shake for 2 minutes, and the cells are incubated at room temperature for 10 minutes, then luminescence is read on Safire reader. The measured luminescence correlates directly with cell number, such that the reading as a function of compound concentration is used to determine the IC50 value.
It is understood that the results of these assays may vary as assay conditions are varied. Inhibition levels determined under the conditions described herein represent a relative activity for the compounds tested under the specific conditions employed. The cell based assays are likely to show variability due to the complexity of the system and the sensitivity thereof to any changes in the assay conditions. […] Results for compounds that are tested and show substantially no inhibition below the highest tested concentration are represented as “-” in the tables below. In some instances, the compounds were not tested in all of the assays, or assay results were not valid, as indicated by NA in the tables below.

Sequence of c-Raf-1 (P04049 whole entry Y340D/Y341D, form open): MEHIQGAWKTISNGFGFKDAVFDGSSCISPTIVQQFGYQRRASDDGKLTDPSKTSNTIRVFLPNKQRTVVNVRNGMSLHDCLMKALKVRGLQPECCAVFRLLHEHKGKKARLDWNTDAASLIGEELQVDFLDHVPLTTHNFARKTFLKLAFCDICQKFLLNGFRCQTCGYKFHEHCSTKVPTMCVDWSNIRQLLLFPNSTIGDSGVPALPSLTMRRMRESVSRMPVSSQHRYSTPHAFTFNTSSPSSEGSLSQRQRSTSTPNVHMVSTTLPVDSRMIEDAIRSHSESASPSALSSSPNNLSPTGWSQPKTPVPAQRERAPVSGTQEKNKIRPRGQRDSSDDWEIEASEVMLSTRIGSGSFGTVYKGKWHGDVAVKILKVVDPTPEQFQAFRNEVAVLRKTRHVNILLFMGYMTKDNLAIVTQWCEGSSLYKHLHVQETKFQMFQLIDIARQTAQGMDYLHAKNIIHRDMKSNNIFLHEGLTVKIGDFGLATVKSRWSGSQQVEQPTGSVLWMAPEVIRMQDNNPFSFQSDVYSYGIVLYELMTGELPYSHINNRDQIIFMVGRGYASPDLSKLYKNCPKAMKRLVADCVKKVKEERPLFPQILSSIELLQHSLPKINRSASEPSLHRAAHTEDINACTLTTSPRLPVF

CCCS(=O)(=O)Nc1ccc(F)c(C(=O)c2c[nH]c3ncc(-c4cnn(-c5nnn[nH]5)c4)cc23)c1F [P-1008, Propane-1-sulfonic acid (2,4-difluoro-3-{5-[1-(1H-tetrazol-5-yl)-1H-pyrazol-4-yl]-1H-pyrrolo[2,3-b]pyridine-3-carbonyl}-phenyl)-amide]
IC50 (c-Raf-1): < 0.1 µM | IC50 (B-Raf): < 0.1 µM | IC50 (B-Raf V600E): < 0.1 µM | IC50 [1]: > 1 µM

CCCS(=O)(=O)Nc1ccc(F)c(C(=O)c2c[nH]c3ncc(-c4csc(-n5cnc(C)c5)n4)cc23)c1F [P-1100, Propane-1-sulfonic acid (2,4-difluoro-3-{5-[2-(4-methyl-imidazol-1-yl)-thiazol-4-yl]-1H-pyrrolo[2,3-b]pyridine-3-carbonyl}-phenyl)-amide]
IC50 (c-Raf-1): < 0.1 µM | IC50 (B-Raf): < 0.1 µM | IC50 (B-Raf V600E): < 0.1 µM | IC50 [1]: < 1 µM

CCCS(=O)(=O)Nc1ccc(F)c(C(=O)c2c[nH]c3ncc(-c4ccc5scnc5c4)cc23)c1F [P-0013, Propane-1-sulfonic acid [3-(5-benzothiazol-5-yl-1H-pyrrolo[2,3-b]pyridine-3-carbonyl)-2,4-difluoro-phenyl]-amide]
IC50 (c-Raf-1): < 0.1 µM | IC50 (B-Raf): < 0.1 µM | IC50 (B-Raf V600E): < 0.1 µM | IC50 [1]: < 1 µM

CCCS(=O)(=O)Nc1ccc(F)c(C(=O)c2c[nH]c3ncc(-c4cnn(-c5ncccn5)c4)cc23)c1F [P-1005, Propane-1-sulfonic acid {2,4-difluoro-3-[5-(1-pyrimidin-2-yl-1H-pyrazol-4-yl)-1H-pyrrolo[2,3-b]pyridine-3-carbonyl]-phenyl}-amide]
IC50 (c-Raf-1): < 0.1 µM | IC50 (B-Raf): < 0.1 µM | IC50 (B-Raf V600E): < 0.1 µM | IC50 [1]: < 1 µM

CCCS(=O)(=O)Nc1ccc(F)c(C(=O)c2c[nH]c3ncc(-c4ccc5nccnc5c4)cc23)c1F [P-0014, Propane-1-sulfonic acid [2,4-difluoro-3-(5-quinoxalin-6-yl-1H-pyrrolo[2,3-b]pyridine-3-carbonyl)-phenyl]-amide]
IC50 (c-Raf-1): < 0.1 µM | IC50 (B-Raf): < 0.1 µM | IC50 (B-Raf V600E): < 0.1 µM | IC50 [1]: < 1 µM

CCCS(=O)(=O)Nc1ccc(F)c(C(=O)c2c[nH]c3ncc(-c4ccc(-c5noc(C)n5)s4)cc23)c1F [P-1203, Propane-1-sulfonic acid (2,4-difluoro-3-{5-[5-(5-methyl-[1,2,4]oxadiazol-3-yl)-thiophen-2-yl]-1H-pyrrolo[2,3-b]pyridine-3-carbonyl}-phenyl)-amide]
IC50 (c-Raf-1): < 0.1 µM | IC50 (B-Raf): < 0.1 µM | IC50 (B-Raf V600E): < 0.1 µM | IC50 [1]: > 1 µM

CCCS(=O)(=O)Nc1ccc(F)c(C(=O)c2c[nH]c3ncc(-c4cnc(-n5cccn5)cn4)cc23)c1F [P-1601, Propane-1-sulfonic acid {2,4-difluoro-3-[5-(5-pyrazol-1-yl-pyrazin-2-yl)-1H-pyrrolo[2,3-b]pyridine-3-carbonyl]-phenyl}-amide]
IC50 (c-Raf-1): < 0.1 µM | IC50 (B-Raf): < 0.1 µM | IC50 (B-Raf V600E): < 0.1 µM | IC50 [1]: < 1 µM

CCCS(=O)(=O)Nc1ccc(F)c(C(=O)c2c[nH]c3ncc(-c4csc(-n5ccnc5)n4)cc23)c1F [P-1106, Propane-1-sulfonic acid {2,4-difluoro-3-[5-(2-imidazol-1-yl-thiazol-4-yl)-1H-pyrrolo[2,3-b]pyridine-3-carbonyl]-phenyl}-amide]
IC50 (c-Raf-1): < 0.1 µM | IC50 (B-Raf): < 0.1 µM | IC50 (B-Raf V600E): < 0.1 µM | IC50 [1]: > 1 µM

CCCS(=O)(=O)Nc1ccc(F)c(C(=O)c2c[nH]c3ncc(-c4cnc(-n5ccnc5)s4)cc23)c1F [P-1104, Propane-1-sulfonic acid {2,4-difluoro-3-[5-(2-imidazol-1-yl-thiazol-5-yl)-1H-pyrrolo[2,3-b]pyridine-3-carbonyl]-phenyl}-amide]
IC50 (c-Raf-1): < 0.1 µM | IC50 (B-Raf): < 0.1 µM | IC50 (B-Raf V600E): < 0.1 µM | IC50 [1]: < 1 µM

CCCS(=O)(=O)Nc1ccc(F)c(C(=O)c2c[nH]c3ncc(-c4cnc(N)cn4)cc23)c1F [P-1603, Propane-1-sulfonic acid {3-[5-(5-amino-pyrazin-2-yl)-1H-pyrrolo[2,3-b]pyridine-3-carbonyl]-2,4-difluoro-phenyl}-amide]
IC50 (c-Raf-1): < 0.1 µM | IC50 (B-Raf): < 0.1 µM | IC50 (B-Raf V600E): < 0.1 µM | IC50 [1]: < 1 µM

CCCS(=O)(=O)Nc1ccc(F)c(C(=O)c2c[nH]c3ncc(-c4cn5ccc(C(F)(F)F)nc5n4)cc23)c1F [P-0022, Propane-1-sulfonic acid {2,4-difluoro-3-[5-(7-trifluoromethyl-imidazo[1,2-a]pyrimidin-2-yl)-1H-pyrrolo[2,3-b]pyridine-3-carbonyl]-phenyl}-amide]
IC50 (c-Raf-1): < 0.1 µM | IC50 (B-Raf): < 0.1 µM | IC50 (B-Raf V600E): < 0.1 µM | IC50 [1]: > 1 µM

CCCS(=O)(=O)Nc1ccc(F)c(C(=O)c2c[nH]c3ncc(-c4cccc5[nH]ccc45)cc23)c1F [P-0019, Propane-1-sulfonic acid {2,4-difluoro-3-[5-(1H-indol-4-yl)-1H-pyrrolo[2,3-b]pyridine-3-carbonyl]-phenyl}-amide]
IC50 (c-Raf-1): < 0.1 µM | IC50 (B-Raf): < 0.1 µM | IC50 (B-Raf V600E): < 0.1 µM | IC50 [1]: > 1 µM

CCCS(=O)(=O)Nc1ccc(F)c(C(=O)c2c[nH]c3ncc(-c4csc(N(C)C)n4)cc23)c1F [P-1102, Propane-1-sulfonic acid {3-[5-(2-dimethylamino-thiazol-4-yl)-1H-pyrrolo[2,3-b]pyridine-3-carbonyl]-2,4-difluoro-phenyl}-amide]
IC50 (c-Raf-1): < 0.1 µM | IC50 (B-Raf): < 0.1 µM | IC50 (B-Raf V600E): < 0.1 µM | IC50 [1]: > 1 µM

CCCS(=O)(=O)Nc1ccc(F)c(C(=O)c2c[nH]c3ncc(-c4ccc5c(c4)CC(=O)N5)cc23)c1F [P-1703, Propane-1-sulfonic acid {2,4-difluoro-3-[5-(2-oxo-2,3-dihydro-1H-indol-5-yl)-1H-pyrrolo[2,3-b]pyridine-3-carbonyl]-phenyl}-amide]
IC50 (c-Raf-1): < 0.1 µM | IC50 (B-Raf): < 0.1 µM | IC50 (B-Raf V600E): < 0.1 µM | IC50 [1]: < 1 µM

CCCS(=O)(=O)Nc1ccc(F)c(C(=O)c2c[nH]c3ncc(-c4csc(-n5cccn5)n4)cc23)c1F [P-1103, Propane-1-sulfonic acid {2,4-difluoro-3-[5-(2-pyrazol-1-yl-thiazol-4-yl)-1H-pyrrolo[2,3-b]pyridine-3-carbonyl]-phenyl}-amide]
IC50 (c-Raf-1): < 0.1 µM | IC50 (B-Raf): < 0.1 µM | IC50 (B-Raf V600E): < 0.1 µM | IC50 [1]: > 1 µM
